This is an account of results in ChEMBL document CHEMBL5465560, “Selectivity Literature for EUbOPEN Chemogenomic Library” (2024).

Molecules are shown by their SMILES.

One may read the IC50 as the midpoint of a concentration-inhibition curve. Higher therefore signals weaker potency in that assay.

The target of assay [1] is T1, Serine/threonine-protein kinase 3 (Homo sapiens) (UniProt Q13188).
T1 sequence (whole entry): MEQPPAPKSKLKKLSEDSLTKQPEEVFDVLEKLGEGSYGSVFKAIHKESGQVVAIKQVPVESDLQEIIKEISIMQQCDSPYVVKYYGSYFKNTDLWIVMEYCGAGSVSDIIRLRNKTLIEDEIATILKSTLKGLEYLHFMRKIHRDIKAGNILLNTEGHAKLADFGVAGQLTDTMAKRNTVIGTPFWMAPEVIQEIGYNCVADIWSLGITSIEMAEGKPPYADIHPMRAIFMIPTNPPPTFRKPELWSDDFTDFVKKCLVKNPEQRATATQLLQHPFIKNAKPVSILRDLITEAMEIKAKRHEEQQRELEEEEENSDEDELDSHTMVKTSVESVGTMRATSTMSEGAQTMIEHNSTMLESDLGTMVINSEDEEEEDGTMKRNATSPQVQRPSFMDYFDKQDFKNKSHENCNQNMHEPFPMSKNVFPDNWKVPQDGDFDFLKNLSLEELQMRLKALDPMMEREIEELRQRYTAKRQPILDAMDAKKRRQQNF
The experiment in a line: Selectivity interaction (KinomeScan (DiscoverX)) EUB0001619a STK3. The settings on record: at 1 µM.

For assay [2], the target named is Cyclin-dependent kinase 5 (Homo sapiens, UniProt Q00535). The experiment in a line: Selectivity interaction (KinomeScan (DiscoverX)) EUB0000666a CDK5. The settings on record: at 10 µM.
Cyclin-dependent kinase 5, sequence (Q00535 whole entry, looked up): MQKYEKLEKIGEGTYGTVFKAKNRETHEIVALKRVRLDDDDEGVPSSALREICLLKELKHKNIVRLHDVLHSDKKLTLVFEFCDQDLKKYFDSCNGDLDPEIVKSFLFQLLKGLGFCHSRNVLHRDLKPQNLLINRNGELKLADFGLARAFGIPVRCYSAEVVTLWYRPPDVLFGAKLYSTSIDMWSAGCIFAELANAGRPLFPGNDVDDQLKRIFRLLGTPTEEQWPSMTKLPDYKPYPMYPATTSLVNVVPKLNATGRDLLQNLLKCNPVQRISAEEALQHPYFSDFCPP
Assay [3] has as its target T2, SNF-related serine/threonine-protein kinase (Homo sapiens) (UniProt Q9NRH2).
T2 sequence (whole entry): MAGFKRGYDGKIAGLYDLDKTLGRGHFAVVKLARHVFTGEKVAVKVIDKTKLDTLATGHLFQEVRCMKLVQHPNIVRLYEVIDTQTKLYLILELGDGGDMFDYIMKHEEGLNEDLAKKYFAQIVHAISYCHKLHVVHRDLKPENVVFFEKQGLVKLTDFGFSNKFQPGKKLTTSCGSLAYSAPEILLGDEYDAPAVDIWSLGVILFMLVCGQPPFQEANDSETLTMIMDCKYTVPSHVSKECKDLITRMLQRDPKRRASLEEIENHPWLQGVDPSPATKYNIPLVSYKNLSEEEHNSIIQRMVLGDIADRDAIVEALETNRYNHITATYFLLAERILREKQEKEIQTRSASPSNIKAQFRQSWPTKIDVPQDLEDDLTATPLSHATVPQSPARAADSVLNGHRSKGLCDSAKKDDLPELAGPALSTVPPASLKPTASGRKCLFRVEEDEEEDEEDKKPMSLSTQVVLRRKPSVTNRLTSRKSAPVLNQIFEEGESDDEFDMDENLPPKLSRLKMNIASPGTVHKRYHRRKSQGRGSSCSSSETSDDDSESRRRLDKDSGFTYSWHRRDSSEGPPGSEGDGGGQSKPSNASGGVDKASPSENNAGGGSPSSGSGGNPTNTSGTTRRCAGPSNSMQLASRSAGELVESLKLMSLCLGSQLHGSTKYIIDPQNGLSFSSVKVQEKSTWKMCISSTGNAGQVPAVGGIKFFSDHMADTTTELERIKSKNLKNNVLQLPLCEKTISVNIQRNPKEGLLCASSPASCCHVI
The experiment in a line: Selectivity interaction (KinomeScan (DiscoverX)) EUB0000666a SNRK. The settings on record: at 10 µM.

The target of assay [4] is Tyrosine-protein kinase JAK2 (Homo sapiens, UniProt O60674). The experiment in a line: Selectivity interaction (Enyzmatic assay) EUB0000601a JAK2.
Tyrosine-protein kinase JAK2, sequence (O60674 whole entry): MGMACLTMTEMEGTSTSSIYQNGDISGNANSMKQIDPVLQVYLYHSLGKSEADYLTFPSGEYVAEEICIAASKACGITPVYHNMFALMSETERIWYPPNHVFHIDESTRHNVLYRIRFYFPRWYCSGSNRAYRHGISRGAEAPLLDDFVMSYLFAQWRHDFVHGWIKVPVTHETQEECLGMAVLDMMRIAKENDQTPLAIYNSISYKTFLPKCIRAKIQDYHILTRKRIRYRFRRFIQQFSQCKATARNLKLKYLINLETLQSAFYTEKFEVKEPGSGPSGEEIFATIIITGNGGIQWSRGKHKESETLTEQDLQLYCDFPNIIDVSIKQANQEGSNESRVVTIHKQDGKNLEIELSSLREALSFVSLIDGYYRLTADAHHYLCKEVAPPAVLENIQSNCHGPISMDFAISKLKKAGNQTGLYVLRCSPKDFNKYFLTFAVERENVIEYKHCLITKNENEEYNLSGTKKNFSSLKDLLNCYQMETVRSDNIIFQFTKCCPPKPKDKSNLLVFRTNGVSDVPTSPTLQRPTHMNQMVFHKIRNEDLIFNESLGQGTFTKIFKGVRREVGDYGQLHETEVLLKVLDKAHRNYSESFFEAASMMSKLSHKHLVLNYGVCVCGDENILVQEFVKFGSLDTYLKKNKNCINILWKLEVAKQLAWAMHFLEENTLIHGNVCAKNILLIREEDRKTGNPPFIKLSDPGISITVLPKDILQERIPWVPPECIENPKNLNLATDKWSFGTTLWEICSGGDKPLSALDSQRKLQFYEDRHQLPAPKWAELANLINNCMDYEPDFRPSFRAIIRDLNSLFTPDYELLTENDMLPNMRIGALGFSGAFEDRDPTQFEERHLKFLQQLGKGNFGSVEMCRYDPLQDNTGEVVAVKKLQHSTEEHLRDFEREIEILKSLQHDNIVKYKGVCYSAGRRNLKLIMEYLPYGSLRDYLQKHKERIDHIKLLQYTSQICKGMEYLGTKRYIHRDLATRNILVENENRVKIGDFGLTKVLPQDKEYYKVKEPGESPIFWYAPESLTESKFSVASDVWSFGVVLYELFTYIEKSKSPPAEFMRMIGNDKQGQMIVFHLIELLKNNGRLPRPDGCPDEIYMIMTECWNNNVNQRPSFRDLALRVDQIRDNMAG
The target in assay [5] is T3, Dual specificity mitogen-activated protein kinase kinase 6 (Homo sapiens) (UniProt P52564).
T3 sequence (whole entry): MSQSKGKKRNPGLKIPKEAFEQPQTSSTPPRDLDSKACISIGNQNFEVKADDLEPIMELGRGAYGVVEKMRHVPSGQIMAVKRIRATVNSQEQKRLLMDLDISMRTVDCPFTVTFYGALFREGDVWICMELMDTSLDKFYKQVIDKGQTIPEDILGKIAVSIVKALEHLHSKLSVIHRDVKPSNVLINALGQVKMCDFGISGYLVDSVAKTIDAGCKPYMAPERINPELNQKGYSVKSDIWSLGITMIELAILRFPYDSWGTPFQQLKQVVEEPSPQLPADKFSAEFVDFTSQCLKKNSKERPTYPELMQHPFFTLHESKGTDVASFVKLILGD
The experiment in a line: Selectivity interaction (ActivX KiNativ screen (kinase selectivity in THP-1 cell lysates)) EUB0000639a MAP2K6. In kind it is subcellular. The note with it: lysate, at 0.04 µM.

In assay [6] the target is Serine/threonine-protein kinase Nek6 (Homo sapiens) (UniProt Q9HC98). The experiment in a line: Selectivity interaction (Kinase panel (Invitrogen)) EUB0000639a NEK6. The note with it: at 200 nM.
Serine/threonine-protein kinase Nek6 (Homo sapiens), sequence (Q9HC98 whole entry): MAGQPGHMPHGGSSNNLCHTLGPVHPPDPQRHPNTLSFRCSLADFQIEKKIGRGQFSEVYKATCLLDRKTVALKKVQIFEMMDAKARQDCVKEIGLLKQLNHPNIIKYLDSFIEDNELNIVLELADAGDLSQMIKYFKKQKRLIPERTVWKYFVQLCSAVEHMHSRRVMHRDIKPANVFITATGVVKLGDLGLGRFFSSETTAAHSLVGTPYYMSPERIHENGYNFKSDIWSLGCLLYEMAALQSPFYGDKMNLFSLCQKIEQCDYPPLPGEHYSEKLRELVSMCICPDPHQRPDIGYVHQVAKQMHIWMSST
Assay [7] has as its target Insulin receptor-related protein (Homo sapiens) (UniProt P14616). As to the kind of experiment: Selectivity interaction (Ambit KINOMEscan and KiNATiv profiling in Jurkat cells) EUB0000090b INSRR. Type of assay: cell-based. The settings on record: at 1 µM.
Assay [8] deals with Tyrosine-protein kinase ABL1 (Homo sapiens), P00519 [F317I]. The experiment in a line: (§1) Selectivity interaction (KinomeScan (DiscoverX)) EUB0000618a ABL1. The note with it: at 10 µM.
Assay [9] deals with Tyrosine-protein kinase ABL1 (Homo sapiens), P00519 [H396P]. The description is as §1. The note with it: at 10 µM.
Assay [10] relates to Tyrosine-protein kinase ABL1 (Homo sapiens), P00519 [F317L]. The description is as §1. The settings on record: at 10 µM.
For assay [11], the target named is Tyrosine-protein kinase ABL1 (Homo sapiens, UniProt P00519). The assay is described as §1. The settings on record: at 10 µM.
For assay [12], the system named is Tyrosine-protein kinase ABL1 (Homo sapiens), P00519 [T315I]. The assay is described as §1. The note with it: at 10 µM.
Assay [13] deals with Tyrosine-protein kinase ABL1 (Homo sapiens), P00519 [M351T]. The description is as §1. The settings on record: at 10 µM.
Assay [14] has as its system Tyrosine-protein kinase ABL1 (Homo sapiens), P00519 [Q252H]. Described as §1. The note with it: at 10 µM.
The subject of assay [15] is Tyrosine-protein kinase ABL1 (Homo sapiens), P00519 [Y253F]. The description is as §1. The settings on record: at 10 µM.
Assay [16] deals with Tyrosine-protein kinase ABL1 (Homo sapiens), P00519 [E255K]. The assay is described as §1. The note with it: at 10 µM.
Assay [17] has as its target T4, Atypical kinase COQ8B, mitochondrial (Homo sapiens) (UniProt Q96D53).
T4 sequence (whole entry): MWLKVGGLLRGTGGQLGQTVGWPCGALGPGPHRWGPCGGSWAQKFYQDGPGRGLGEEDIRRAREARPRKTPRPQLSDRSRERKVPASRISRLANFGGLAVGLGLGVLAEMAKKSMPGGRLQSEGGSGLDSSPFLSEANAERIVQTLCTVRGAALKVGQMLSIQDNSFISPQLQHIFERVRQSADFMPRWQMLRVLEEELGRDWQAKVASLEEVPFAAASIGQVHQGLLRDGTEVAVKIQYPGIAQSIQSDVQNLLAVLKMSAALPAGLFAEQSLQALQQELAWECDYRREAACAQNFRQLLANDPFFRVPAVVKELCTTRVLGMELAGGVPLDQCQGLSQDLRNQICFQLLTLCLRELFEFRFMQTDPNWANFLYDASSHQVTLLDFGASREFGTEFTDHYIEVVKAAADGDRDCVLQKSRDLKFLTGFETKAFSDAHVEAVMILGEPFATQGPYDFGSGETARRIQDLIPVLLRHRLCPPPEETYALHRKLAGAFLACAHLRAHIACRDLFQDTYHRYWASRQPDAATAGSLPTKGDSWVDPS
The experiment in a line: Selectivity interaction (KinomeScan (DiscoverX)) EUB0000092b ADCK4. The settings on record: at 10 µM.

Insulin receptor-related protein (Homo sapiens), sequence (P14616 27-742 limits assumed): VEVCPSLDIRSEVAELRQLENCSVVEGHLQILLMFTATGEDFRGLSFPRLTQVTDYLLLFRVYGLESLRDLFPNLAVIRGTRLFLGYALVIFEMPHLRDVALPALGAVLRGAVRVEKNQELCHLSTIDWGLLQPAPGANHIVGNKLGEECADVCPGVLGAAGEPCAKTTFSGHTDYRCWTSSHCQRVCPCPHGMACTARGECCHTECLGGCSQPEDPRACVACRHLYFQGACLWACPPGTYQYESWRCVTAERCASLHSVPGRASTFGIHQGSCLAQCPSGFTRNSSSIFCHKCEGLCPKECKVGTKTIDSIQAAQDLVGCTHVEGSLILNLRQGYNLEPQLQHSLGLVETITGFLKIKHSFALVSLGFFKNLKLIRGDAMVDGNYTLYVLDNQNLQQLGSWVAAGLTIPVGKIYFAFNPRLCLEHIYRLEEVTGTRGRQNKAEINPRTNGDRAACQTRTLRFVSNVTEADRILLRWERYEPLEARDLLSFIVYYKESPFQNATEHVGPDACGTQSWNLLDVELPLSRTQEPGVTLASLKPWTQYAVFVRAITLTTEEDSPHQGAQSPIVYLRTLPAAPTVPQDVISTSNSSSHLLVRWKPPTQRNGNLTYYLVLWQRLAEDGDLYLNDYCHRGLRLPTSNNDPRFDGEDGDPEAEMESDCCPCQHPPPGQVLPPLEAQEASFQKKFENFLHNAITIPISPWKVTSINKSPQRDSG
Insulin receptor-related protein (Homo sapiens), sequence (P14616 747-1297 limits assumed): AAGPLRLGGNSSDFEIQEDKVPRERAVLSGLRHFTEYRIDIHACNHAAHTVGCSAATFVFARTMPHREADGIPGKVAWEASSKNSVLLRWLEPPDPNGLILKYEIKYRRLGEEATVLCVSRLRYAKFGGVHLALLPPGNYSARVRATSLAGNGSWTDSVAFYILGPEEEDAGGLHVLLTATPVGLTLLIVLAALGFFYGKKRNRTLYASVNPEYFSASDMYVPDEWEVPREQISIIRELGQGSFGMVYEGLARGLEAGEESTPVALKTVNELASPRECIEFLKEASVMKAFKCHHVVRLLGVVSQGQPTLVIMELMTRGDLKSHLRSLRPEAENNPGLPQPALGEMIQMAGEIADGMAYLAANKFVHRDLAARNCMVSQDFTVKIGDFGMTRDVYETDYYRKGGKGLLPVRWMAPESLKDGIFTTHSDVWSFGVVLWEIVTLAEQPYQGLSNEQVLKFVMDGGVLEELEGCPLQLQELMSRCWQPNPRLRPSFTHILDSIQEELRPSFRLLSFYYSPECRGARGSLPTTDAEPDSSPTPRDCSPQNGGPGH

In the case of `N#Cc1cccc(-c2c[nH]c3ncnc(N4CCOCC4)c23)c1`, the % of control in [1] amounted to 1.8%.

In the case of `O=C(NOC[C@H](O)CO)c1ccc(F)c(F)c1Nc1ccc(I)cc1F`, the % of control in assay [2] and in [3] was 100% in each case.

On to `CCc1cc(Nc2nccc(-c3c(-c4ccc(OC)c(C(=O)Nc5c(F)cccc5F)c4)nc4ccccn34)n2)c(OC)cc1N1CCC(N2CCN(S(C)(=O)=O)CC2)CC1`, for which the IC50 in assay [4] was above 16 µM.

With `CC[C@@H]1[C@H](F)C(=O)N[C@@H]1COc1nccc2cc(C(N)=O)c(OC)cc12` [ZIMLOVISERTIB], the % of inhibition in assay [5] was 4.7%; in assay [6] it was 6.81%.

`CN(C)C/C=C/C(=O)Nc1ccc(C(=O)N2CCCC(Nc3ncc(Cl)c(-c4c[nH]c5ccccc45)n3)C2)cc1` (configuration not stated) yielded a % of control in assay [7] of 100%.

In the case of `O[C@H]1CC[C@H](Nc2ncc3nc(Nc4c(F)cc(F)cc4F)n([C@H]4CCOC4)c3n2)CC1`, the % of control in assay [8] worked out at 51%; in assay [9] it was 13%; in assay [10], 55%; in [11], 39%; in [12], 100%; in [13], 38%. Also, the values for the % of control in assay [14], in assay [15] and in [16] were 47%, 29% and 31%, respectively.

Regarding `CCC(=O)N1CCN(c2ccc(-n3c(=O)ccc4cnc5ccc(-c6cnc7ccccc7c6)cc5c43)cc2C(F)(F)F)CC1`, the % of control in assay [17] came out at 15%.
